The text below walks through data of patent publication US20240423245A1, “CANNABINOIDS FOR IMPROVEMENT OF P[…] LIVESTOCK” (Kansas State University Research Foundation, priority 2021, published 2024).

The structures appear in SMILES notation. “And” between values parts separate entries of the source, which are not always exact repeats. Equal values may be shown once. Read-outs that look alike come from different tables or passages of the source.

Data set [1] can be described thus: Plasma cannabinoid concentrations and pharmacokinetics during 14-day industrial hemp feeding. In kind it is in vivo, Holstein cattle. Particulars: for number of plasma samples in which cannabinoid was detected: of 288 samples from HEMP (IH) cattle; for half-life / Cmax / AUC(0-inf) / AUC(0-t) / MRT inf / Tmax: Holstein, bovine; for MRT inf: read-out: MRT0-∞; for detection in plasma: HEMP cattle, doses 0.005 mg/kg CBDVA, 0.2 mg/kg CBGA, 0.1 mg/kg THCA-A. As for the experimental part:
Cattle in the HEMP group were individually fed 25 g IH mixed in 200 g grain placed in rubber feed pans at 07:00 daily for 14 days. The IH was fed at 25 g per animal per day to target a mean dose of CBDA of 5.5 mg/kg. Daily IH feeding was after the daily blood sample for cattle in the HEMP group.
Cattle were blood sampled at predetermined time points from the jugular or coccygeal veins using a needle and vacutainer. Whole blood was collected into tubes containing sodium heparin, EDTA, sodium citrate, and no additives. Blood samples from the HEMP cattle were obtained prior to initial IH feeding (day −1) and 8 and 12 h post-initial IH feeding; then every 12 h (prior to the next IH feeding); then (starting 12 hours after the last IH feeding) every 24 hours for 5 samples or 108 h after the last IH feeding Cattle in the CNTL group were blood sampled −24 h prior to the initial IH feeding; and on day 7, 14 and 19 post-initial IH feeding.
Plasma cannabinoid concentrations were determined using UPLC-MS methods. All solvents used such as methanol, acetonitrile, isopropanol, formic acid were LC-MS grade. Cannabinoids standards were purchased in individual solutions in methanol (Cerilliant Corporation, Round Rock, TX), including: (±)-cis-11-Nor-9-carboxy-A 9-tetrahydrocannabinol glucuronide (THC-glu), (±)-11-Hydroxy-Δ9-tetrahydrocannabinol (THC-OH), cannabidivarinic acid (CBDVA), cannabidivarin (CBDV), cannabidiol (CBD), cannabidiolic acid (CBDA), Δ9-Tetrahydrocannabinolic acid A (THCA-A), cannabigerolic acid (CBGA), cannabigerol (CBG), Δ9-tetrahydrocannabinol (9-THC), Δ8-tetrahydrocannabinol (8-THC), cannabichromene (CBC), Δ9-tetrahydrocannabivarin (THCV), cannabichromenic Acid (CBCA), cannabinol (CBN), (−)-11-nor-9-Carboxy-Δ9-tetrahydrocannabinol (THC-acid). Cannabinoid analogs used as internal standards were also purchased in solution in methanol at 100 μg/ml (Cerilliant Corporation, Round Rock, TX): (±)-cis-11-Nor-9-carboxy-Δ9-tetrahydrocannabinol glucuronide (THC-glu-d3), Cannabidiol-d3 (CBD-d3), Δ9-Tetrahydrocannabinol-d3 (9-THC-d3), (±)-11-nor-9-Carboxy-D9-tetrahydrocannabinol-d9 (THC-acid-d9), (±)-11-Hydroxy-Δ9-tetrahydrocannabinol-d3 (THC-OH-d3), Cannabichromene-do (CBC-d9). All cannabinoids standards were kept in the freezer at −20° C. On the day of analysis, plasma samples were allowed to thaw. Plasma (samples, quality controls or negative control plasma) were mixed with the internal standard mixture at 200 ng/mL (not added to the negative control sample) and acetonitrile with 0.1% formic acid to precipitate the proteins. The mixture was vortexed for 5 seconds and centrifuge for 5 minutes at 7,000 g. The supernatant was then diluted with ultra-pure […] water before clean-up. The sample was loaded on a solid phase extraction plate using positive pressure nitrogen. Each well was washed twice with 0.25 mL of a mixture of methanol-water (25:75). The compounds were eluted with two-25 μL aliquots of acetonitrile-methanol (90:10) and diluted with 50 μL of water before analysis.
Cannabinoid analysis was performed using an Acquity H UPLC and a TQ-S triple quadrupole mass spectrometer (Waters Corp., Milford, MA). The chromatographic separation was performed with a UPLC column (Eclipse Plus C18, Agilent Technologies, Santa Clara, CA) 100×2.1 mm, 1.8μ, heated at 55° C. The flow rate was set at 0.5 mL/min, the mobile phase consisted of a gradient of acetonitrile (B) and water containing 0.1% formic acid (A) as follow: 0 min: 60% B, 6.50 min: 86% B, 7.50 min-9 min: 100% B, 9.01 m in 12 min: 60% B. The total run time was 12 min. The injection volume was 5 μL. The data acquisition was performed by electrospray ionization in positive and negative mode using multiple reaction monitoring. Linear regression with a weighing factor of 1/X was used and accepted if the coefficient of correlation R^2 was >0.99. Calibration curves were linear from 0.1 to 100 ng/ml for all cannabinoids. […]

The conditions of data set [2]: cited from earlier work.
Where [3] appears, read: plasma, po, 5.5 mg/kg, geometric mean, IH fed 14 days, target dose 5.5 mg/kg CBDA, n = 8.
[4] abbreviates: plasma, po, 5.5 mg/kg, median, IH fed 14 days, target dose 5.5 mg/kg CBDA, n = 8.
The mark [5] stands for this setting: geometric mean, IH fed 14 days, target dose 5.5 mg/kg CBDA, n = 8.
Setting [6] is: median, IH fed 14 days, target dose 5.5 mg/kg CBDA, n = 8.
The mark [7] stands for this setting: plasma, initial hemp feeding period.

Consider `CCCCCc1cc2c(c(O)c1C(=O)O)C=CC(C)(CCC=C(C)C)O2` (stereo not shown) [CBCA, cannabichromenic acid], for which the “number of plasma samples in which cannabinoid was detected” value in data set [1] is 93.
The same measure, in the same setting: the value for `C=C(C)[C@@H]1CCC(C)=C[C@H]1c1c(O)cc(CCCCC)cc1O` [CBD, cannabidiol, reference compound] was 159.
As a reminder, the Cmax is the peak of the concentration-time curve. In general, AUC(0-inf) refers to the area under the concentration-time curve extrapolated to infinity. Read a high AUC(0-inf) as high exposure. Usually AUC(0-t) stands for exposure summed from dosing to a finite time, without extrapolation to infinity. The term Tmax denotes the time at which the peak concentration occurs. Turning to `C=C(C)[C@@H]1CCC(C)=C[C@H]1c1c(O)cc(CCCCC)c(C(=O)O)c1O` [CBDA, cannabidiolic acid], the half-life in data set [1] (plasma, oral, 5.5 mg/kg, geometric mean, IH fed 14 days, target dose 5.5 mg/kg CBDA, n = 8, read-out: T1/2 (terminal half-life) (converted)) is 15 h. The molecule further displayed a Cmax in data set [1] (plasma, oral, 5.5 mg/kg, geometric mean, initial hemp feeding period, target dose 5.5 mg/kg CBDA, n = 8) of 22 ng/mL. For the same molecule, in data set [1] (setting [3]), the AUC(0-inf) turned out to be 13600 ng·h/mL, the AUC(0-t) came to 13500 ng·h/mL and the MRT inf was found to be 822 h. In addition, the half-life in data set [1] (plasma, po, 5.5 mg/kg, geometric mean, IH fed 14 days, target dose 5.5 mg/kg CBDA, n = 8, read-out: T1/2 (terminal half-life) (converted)) is 15.3 h. Also, the Tmax in data set [1] (plasma, po, 5.5 mg/kg, geometric mean, after the initial IH feeding, target dose 5.5 mg/kg CBDA, n = 8) stood at 16.7 h. The molecule also came in with a Cmax in data set [1] (plasma, po, 5.5 mg/kg, geometric mean, initial hemp feeding period, target dose 5.5 mg/kg CBDA, n = 8) of 22.1 ng/mL. In data set [1] (setting [4]), the AUC(0-inf) stood at 13600 ng·h/mL, the AUC(0-t) is 13500 ng·h/mL, the highest level (Cmax) was 22.2 ng/mL and the Tmax stood at 24 h. Also, the MRT inf in data set [1] (setting [4]) was 772 h. Also, in data set [1] (plasma, po, 5.5 mg/kg, median, IH fed 14 days, target dose 5.5 mg/kg CBDA, n = 8, read-out: T1/2 (converted)), the half-life was 14.8 h. Besides, the “time to plasma steady state concentrations” value in data set [1] (daily IH administration, visual inspection of the data) is recorded as “approximately 7 days”. The “Accumulation (index/ratio)” value in data set [1] (geometric mean / mean, 14-day feeding period, target dose 5.5 mg/kg CBDA, n = 8, 5.5 mg/kg) is 1.5 and 1.52. In addition, in data set [1] (setting [5]), the AUC extrapolated was 0.38% and the λz worked out at 0.05 h⁻¹. Further, in data set [1] (setting [6]), the AUC extrapolated is listed as 0.49%, the Accumulation was 1.49 and the λz was 0.05 h⁻¹. Moreover, in data set [1] (setting [7]), the “geometric mean minimum concentration” value is 12.3 ng/mL and the “time of minimum concentration after the initial IH feeding” value turned out to be 9.3 h. In data set [2] (earlier published study), the “maximum CBDA concentration (Cmax), previously reported” value is reported as 72.7 ng/mL and the “terminal half-life, previously published” value is listed as 14 h. In addition, the “time of peak concentrations post-exposure” value in data set [2] (single oral dosing of IH) was 12 to 24 h.
Regarding `C=C(C)[C@@H]1CCC(C)=C[C@H]1c1c(O)cc(CCC)c(C(=O)O)c1O` [CBDVA, cannabidivarinic acid], the detection in plasma entry in data set [1] is reported as “detected in the plasma of all cattle”.
As for `CCCCCc1cc(O)c(C/C=C(\C)CCC=C(C)C)c(O)c1C(=O)O` [CBGA, cannabigerolic acid], the detection in plasma result in data set [1] is given as “detected in the plasma of all cattle”.
The same measure, in the same setting: to `CCCCCc1cc2c(c(O)c1C(=O)O)[C@@H]1C=C(C)CC[C@H]1C(C)(C)O2` [THCA-A, tetrahydrocannabinolic acid A] belongs “detected in the plasma of all cattle”.
